Assays:
Phakopsora pachyrhizi = test: Protective control of soy bean rust on soy beans (Phakpa P2), green house; assay type: in vivo, Phakopsora pachyrhizi on soy bean; conditions: 16 ppm spray, inoculated 2 days after treatment, % diseased leaf area, untreated control 80
Septoria tritici = test: Activity against leaf blotch on wheat caused by Septoria tritici (Septtr), microtest; assay type: cell-based; conditions: relative growth vs compound-free control (100%), 405 nm, 7 days after inoculation

Row | SMILES | Disease (%) at 16 ppm Phakpa P2 (Phakopsora pachyrhizi) | Growth (%) at 0.000125 ppm Septtr (Septoria tritici)
1 | CCC(Cn1cncn1)(OC)c1ccc(Oc2ccc(Cl)cc2)cc1Cl (stereo not shown) [U.S. Pat. No. 4,940,720] | 60% | 53%
2 | COC(C)(Cn1cncn1)c1ccc(Oc2ccc(Cl)cc2)cc1Cl (stereo not shown) [EP 0126430] | 60% | 63%
